Data taken from US9486447B2, “Compositions and methods for controlling neuronal excitation” (The General Hospital Corporation, priority 2011, dated 2016).
“Also recorded” adds a separate entry of the source.

Key:
zebrafish embryos = assay: Zebrafish behavioral assay (light-dependent motor excitation, excitation score); format: in vivo; settings: for behavioral excitation (activity of optovin analogs) / light-dependent motor excitation in vivo: 10 μM; for behavioral excitation (activity of optovin analogs): n=5, FIG. 2A; for light-dependent motor excitation in vivo: n=3, FIG. 4H
Procedure: To identify small molecules for the optical control of endogenous channels, a screen was conducted for compounds that could drive light-dependent motor behaviors in wild-type zebrafish. Zebrafish embryos are particularly well suited for phenotype based chemical screens^28,29. They are blind for the first 3 days of development and other than a one-time motor response to the first light exposure in dark-adapted animals (the photomotor response, PMR), zebrafish embryos are unresponsive to light^31,30 (FIG. 1A). A library of 10,000 structurally diverse synthetic small molecules was screened for compounds that render zebrafish embryos responsive to light. Behavioral responses were measured for each well in comparison to a set of 2,500 DMSO treated controls. This screen identified a single compound, optovin, that increased motor activity greater than 40 standard deviations above the control mean (FIGS. 1A-1C).
A large number of fertilized eggs (up to 5,000 embryos per day) were collected from group mating of Ekkwill or TuAB zebrafish. Embryos were raised in HEPES (10 mM) buffered E3 media in a dark incubator at 28° C. until […]. Groups of ˜8 embryos (28 hpf) were distributed into the wells of flat bottom black-walled 96 well plates filled with E3 media (360 μl). Embryos were then incubated in a dark incubator 25° C. for chemical treatment and subsequent experiments.
The Tim Tec ACTIPROBEβ library contains 10,000 compounds dissolved in DMSO at a stock concentration of 1 mg/ml (˜3 mM). The Tim Tec library was screened at a 1:300 dilution in E3 buffer for a final concentration of ˜10 μM. Negative controls were treated with an equal volume of DMSO. Stock solutions were added directly to zebrafish in the wells of a 96 well plate, mixed, and allowed to incubate for 2-10 hours in the dark prior to behavioral evaluation in the PMR assay. The Tim Tec library (10,000 compounds) was purchased from the Tim Tec corporation (Newark, Del.). The Neurotransmitter Library (700 compounds; cat #2810) was purchased from Biomol International. Reordered hit compounds were dissolved in DMSO and added to wells as described above.
Animals were exposed to a two pulse stimulus train with a 10 s inter-stimulus interval. Exposure to the first pulse was used to trigger the photomotor response, which has a refractory phase of approximately 10 minutes. […] In a typical assay, 1000 frames of digital video were recorded at 33 fps using a Hamamatsu ORCA-ER camera mounted on a Nikon TE200 microscope with a 1× objective. Instrument control and data measurement were performed using custom scripts for Metamorph Software (Molecular Devices). Each video was saved for review. Light stimuli were generated with a 300-watt xenon bulb housed in a Sutter Lambda LS illuminator and delivered to the well 10 s and 20 s after the start of each video. A cold mirror (reflectance between 300 nm and 700 nm) on the Sutter illuminator was used to block wavelengths outside of this range. Light intensity was measured using a PM100D power meter attached to a S120VC photodiode power sensor (Thorlabs). Where indicated, filters were used to restrict the excitation light to the indicated wavelengths.
To analyze digital video recordings, custom software scripts were used to automatically draw six evenly spaced line segments across each well such that each embryo is likely to be crossed by one of the lines. The software then tracks the average intensity of the pixels for each segment over time. As the embryos move, the light intensity at some of the pixels changes. The motion index was calculated by taking the total absolute difference in pixel intensity between frames. This motion index correlates with the overall amount of motion in the well, both in terms of contraction frequency and number of animals in motion. Behavioral features are quantified by ‘excitation scores’ that are calculated by taking the 75th percentile of the motion index for 3-5 s following the light stimulus. […]

[1] = test system: dorsal root ganglia (DRG) sensory neurons; assay: Calcium imaging of DRG sensory neurons; format: cell-based, mouse; settings: 100 μM mustard oil
Procedure: To determine if optovin acts on sensory neurons, the activity of treated and untreated dorsal root ganglia (DRG) sensory neurons isolated from wild type mice were compared. […] TRPA1 channels play important roles in detecting chemical, thermal, and mechanical stimuli in a variety of organisms^34,35.
C57Bl/6 male mice (3-4 weeks old) were decapitated and DRG were dissected into 4° C. Hank's Balanced Salt Solution (HBSS; Gibco), then neurons were dissociated using collagenase (1 mg/mL; Worthington) and dispase (5 mg/mL; Gibco) dissolved in HBSS. Neurons were plated in Neurobasal-A medium (Invitrogen), supplemented with B-27 Supplement (Gibco), L-glutamine (Gibco), and penicillin-streptomycin (Gibco). The neurons were plated onto coverslips coated with 0.1 mg/mL poly-D-lysine (Sigma) and 5 μg/mL laminin (Sigma). After 24 h, neurons were washed with assay buffer (HBSS, supplemented with 9 mM HEPES, 11 mM D-glucose, 0.1% fatty-acid free BSA, pH 7.3) and incubated for 1 h with 2 μM Fura2-AM (Invitrogen) with 0.2% pluronic (Invitrogen) in assay buffer in the dark at room temperature. The neurons were then washed with assay buffer and allowed to equilibrate at room temperature for 30 min prior to imaging. After a 120 s baseline perfusion of assay buffer containing 3.3% DMSO, 100 μM optovin dissolved in the DMSO-assay buffer solution, or the DMSO-assay buffer solution alone as a control, was perfused onto the neurons for a period of 1 min. Fura-2 is activated with UV-light, and the process of imaging Fura-2 was enough to activate the optovin. […] Following this one-minute period, cells were perfused with DMSO-assay buffer to remove the agonist, which was followed by addition of 100 μM mustard oil (in DMSO-assay buffer) to determine the total number of TrpA1-expressing neurons present. Images were acquired on a Nikon Eclipse Ti microscope (Nikon, Melville, N.Y.).

Compound | behavioral excitation (activity of optovin analogs) (zebrafish embryos) | also measured
CN(C)c1ccc(C=C2SC(=S)NC2=O)cc1 [6c7] | Neither analog retains activity; also recorded: inactive | 
C=CCN=C=S [mustard oil, reference compound] |  | response of optovin responsive DRG neurons to mustard oil [1]: responded to mustard oil
COc1cc(C(C)=C2SC(=S)NC2=O)ccc1O [7d1] |  | light-dependent motor excitation in vivo (zebrafish embryos): does not cause light dependent motor activity
O=C1CSC(=S)N1 [6c5] | Neither analog retains activity; also recorded: inactive | 
C1CN2CCN1CC2 [DABCO, 1,4-diazabicyclo[2.2.2]octane, reference compound] |  | effect on other light elicited behaviors (PMR) (zebrafish embryos; co-treatment with optovin): not affect other light elicited behaviors; suppression of the optovin response in vivo (zebrafish embryos; co-treatment with optovin): completely suppress the optovin response
COc1ccc(/C=C2/SC(=S)NC2=O)cc1O [7c7] |  | light-dependent motor excitation in vivo (zebrafish embryos): cause light-dependent motor excitation
Cc1cc(/C=C2/SC(=S)NC2=O)c(C)n1C [6c1] | bioactive; also recorded: active | lowest effective dose (zebrafish embryos; zebrafish, in vivo): 300 nM; lowest effective dose, fold lower than optovin (zebrafish embryos; zebrafish, in vivo): 10 ×
CCN1C(=O)C(=Cc2cc(C)n(-c3cccnc3)c2C)SC1=S [6c3] | abrogate the optovin response; also recorded: inactive | 
Cc1cc(/C=C2/NC(=O)NC2=O)c(C)n1-c1cccnc1 [6c4] | retains optovin activity | 
Cc1cc(/C=C2/SC(=S)NC2=O)c(C)n1-c1ccccc1 [6b8] | bioactive; also recorded: active | 
Cc1cc(C=C2SC(=O)NC2=O)c(C)n1-c1cccnc1 [6c2] | abrogate the optovin response; also recorded: inactive | 
